According to US9365588B2, “Benzoxazines as modulators of ion channels” (Vertex Pharmaceuticals Incorporated, priority 2011, dated 2016):
pIC50: −log10 of the molar value.

Target: human NaV 1.7 (Homo sapiens, UniProt Q15858)
Assay: E-VIPR optical membrane potential assay with electrical stimulation
Format: cell-based
Details: sodium channel inhibition; read-out: Binned Activity Data (IC50)
Summary of the method: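 Membrane-potential read-out: background-subtracted 460 nm/580 nm ratio during a 9 s current-controlled stimulus, 400 Hz scan. Before stimulation, NaV1.7-HEK cells carried coumarin/oxonol dye and compound (final DMSO 0.625%) for 20–35 min at room temperature; tetracaine 125 μM served as positive control.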

human NaV 1.7, sequence (Q15858 whole entry): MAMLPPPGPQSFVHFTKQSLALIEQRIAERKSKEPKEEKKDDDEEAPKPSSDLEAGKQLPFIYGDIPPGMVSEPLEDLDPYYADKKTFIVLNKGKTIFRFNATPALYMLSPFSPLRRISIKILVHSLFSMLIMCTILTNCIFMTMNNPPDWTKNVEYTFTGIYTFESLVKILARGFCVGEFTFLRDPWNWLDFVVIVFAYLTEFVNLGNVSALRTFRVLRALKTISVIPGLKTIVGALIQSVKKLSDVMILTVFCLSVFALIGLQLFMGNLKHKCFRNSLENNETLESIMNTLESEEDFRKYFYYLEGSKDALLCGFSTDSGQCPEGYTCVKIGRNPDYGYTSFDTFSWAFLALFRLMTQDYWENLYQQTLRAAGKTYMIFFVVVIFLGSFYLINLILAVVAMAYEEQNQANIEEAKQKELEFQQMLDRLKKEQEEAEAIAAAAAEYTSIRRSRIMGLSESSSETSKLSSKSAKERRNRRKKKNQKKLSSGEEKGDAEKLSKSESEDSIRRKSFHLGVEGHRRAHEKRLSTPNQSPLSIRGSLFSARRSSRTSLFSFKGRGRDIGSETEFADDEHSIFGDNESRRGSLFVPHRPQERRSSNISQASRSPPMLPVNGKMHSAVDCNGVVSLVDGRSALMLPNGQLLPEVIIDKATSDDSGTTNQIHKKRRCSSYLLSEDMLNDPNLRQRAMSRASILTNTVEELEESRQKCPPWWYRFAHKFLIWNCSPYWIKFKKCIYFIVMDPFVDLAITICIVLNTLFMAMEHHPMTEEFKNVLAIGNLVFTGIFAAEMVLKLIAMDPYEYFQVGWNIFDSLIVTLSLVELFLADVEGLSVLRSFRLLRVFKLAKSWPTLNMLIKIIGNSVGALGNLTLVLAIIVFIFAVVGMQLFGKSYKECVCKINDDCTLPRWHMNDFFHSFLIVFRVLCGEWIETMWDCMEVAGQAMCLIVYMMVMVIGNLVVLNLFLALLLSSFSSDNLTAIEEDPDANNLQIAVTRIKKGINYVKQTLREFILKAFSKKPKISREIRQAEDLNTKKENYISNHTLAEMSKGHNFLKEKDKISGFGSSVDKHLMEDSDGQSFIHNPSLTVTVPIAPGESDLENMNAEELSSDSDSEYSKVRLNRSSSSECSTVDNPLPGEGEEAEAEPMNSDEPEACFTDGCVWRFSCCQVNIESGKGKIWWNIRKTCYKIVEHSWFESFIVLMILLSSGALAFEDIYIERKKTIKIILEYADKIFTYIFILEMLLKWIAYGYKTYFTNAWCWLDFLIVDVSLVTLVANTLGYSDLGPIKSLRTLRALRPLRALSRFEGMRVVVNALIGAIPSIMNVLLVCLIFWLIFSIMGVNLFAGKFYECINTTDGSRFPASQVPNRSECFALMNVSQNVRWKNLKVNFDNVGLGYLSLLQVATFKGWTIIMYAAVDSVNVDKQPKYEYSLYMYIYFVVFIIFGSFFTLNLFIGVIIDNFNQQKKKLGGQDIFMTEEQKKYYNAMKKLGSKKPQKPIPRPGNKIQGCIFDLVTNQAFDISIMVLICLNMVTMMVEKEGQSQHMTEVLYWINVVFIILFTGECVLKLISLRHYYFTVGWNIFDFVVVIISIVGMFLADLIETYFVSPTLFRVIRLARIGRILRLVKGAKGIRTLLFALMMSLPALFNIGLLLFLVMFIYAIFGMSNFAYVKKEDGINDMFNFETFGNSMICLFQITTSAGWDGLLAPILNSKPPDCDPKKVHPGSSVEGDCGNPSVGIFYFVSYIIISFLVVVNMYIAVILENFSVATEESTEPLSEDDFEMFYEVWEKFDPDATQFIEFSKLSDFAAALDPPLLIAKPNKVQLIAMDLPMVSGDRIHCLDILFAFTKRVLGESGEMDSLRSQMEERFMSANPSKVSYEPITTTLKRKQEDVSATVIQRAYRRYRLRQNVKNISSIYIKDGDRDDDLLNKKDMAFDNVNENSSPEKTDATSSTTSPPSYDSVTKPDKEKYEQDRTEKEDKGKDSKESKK

| Structure (SMILES) | pIC50 |
| --- | --- |
| CC[C@H](C)Oc1ccc(C(=O)N2CCC3(CC2)Oc2ccccc2-n2cccc23)cc1C#N [Compound 744] | ≥ 5.70 |
| CCc1ccc(C(=O)N2CCC3(CC2)Oc2cc(CO)ccc2-n2cccc23)cc1OC [Compound 848] | ≥ 5.70 |
| COc1ccc(C(=O)N2CCC3(CC2)Oc2ccccc2-c2c3cnn2C)c(OC)c1 [Compound 187] | ≥ 5.70 |
| Cc1cc(C(=O)N2CCC3(CC2)Oc2ccccc2-c2c3cnn2C)ccc1OC(C)C [Compound 5] | ≥ 5.70 |
| O=C(c1ccc(C(O)C2CC2)cc1)N1CCC2(CC1)Oc1ccccc1-n1c(C(F)(F)F)ccc12 (stereo not drawn) [Compound 815] | ≥ 5.70 |
| N#Cc1cc(F)cc(C(=O)N2CCC3(CC2)Oc2cc(Cl)ccc2-n2cccc23)c1 [Compound 304] | ≥ 5.70 |
| CC(C)CS(=O)(=O)c1ccc(C(=O)N2CCC3(CC2)Oc2ccccc2-n2c(C(F)(F)F)ccc23)cc1 [Compound 11] | ≥ 5.70 |
| COc1cc(C(=O)N2CCC3(CC2)Oc2cc(Cl)ccc2-n2cccc23)ccc1OC[C@H](C)OC [Compound 407] | ≥ 5.70 |
| Cn1ncc2c1-c1ccccc1OC21CCN(C(=O)c2cccnc2Oc2ccccc2)CC1 [Compound 138] | ≥ 5.70 |
| CCOc1c(F)cccc1C(=O)N1CCC2(CC1)Oc1ccccc1-n1c(C#N)ccc12 [Compound 769] | ≥ 5.70 |
| CCn1ncc2c1-c1ccccc1OC21CCN(C(=O)c2cccc(F)c2OC)CC1 [Compound 154] | ≥ 5.70 |
| COc1cccc(C(=O)N2CCC3(CC2)Oc2ccccc2-c2c3cnn2C)c1OC [Compound 831] | ≥ 5.70 |
| CC(C)(C)c1ccc(C(=O)N2CCC3(CC2)Oc2ccccc2-n2c(C#N)ccc23)cn1 [Compound 849] | < 5.30 |
| COc1cc(C(=O)N2CCC3(CC2)Oc2ccccc2-c2c3cnn2C)ccc1OCCC(C)C [Compound 362] | ≥ 5.70 |
| CCOc1cccc(C(=O)N2CCC3(CC2)Oc2ccccc2-c2c3cnn2C)c1F [Compound 738] | 5.30 to 5.70 |
| Cn1cc(C(=O)N2CCC3(CC2)Oc2cc(Cl)ccc2-n2cccc23)ccc1=O [Compound 670] | < 5.30 |
| COc1ccccc1C(=O)N1CCC2(CC1)Oc1ccc(F)cc1-c1c2cnn1C [Compound 383] | ≥ 5.70 |
| CCc1ccc(C(=O)N2CCC3(CC2)Oc2ccccc2-n2c(C)ccc23)cc1OC [Compound 735] | ≥ 5.70 |
| Cn1ncc2c1-c1cc(F)ccc1OC21CCN(C(=O)c2ccccc2C(F)F)CC1 [Compound 309] | < 5.30 |
| O=C(c1ccc2nc(Cl)sc2c1)N1CCC2(CC1)Oc1ccccc1-n1c(C(F)(F)F)ccc12 [Compound 505] | 5.30 to 5.70 |
| COc1cc(C(=O)N2CCC3(CC2)Oc2cc(Cl)ccc2-n2cccc23)ccc1C1CC1 [Compound 512] | ≥ 5.70 |
| Cc1cc(C(=O)N2CCC3(CC2)Oc2ccccc2-n2c3ccc2S(C)(=O)=O)ccc1OC(C)C [Compound 554] | ≥ 5.70 |
| O=C(c1ccc(OS(=O)(=O)C(F)(F)F)cc1)N1CCC2(CC1)Oc1ccccc1-n1c(C(F)(F)F)ccc12 [Compound 891] | ≥ 5.70 |
| COc1ccc2c(c1)-c1c(cnn1C)C1(CCN(C(=O)c3ccc(OC(C)C)c(C)c3)CC1)O2 [Compound 822] | ≥ 5.70 |
| Cc1cc(C(=O)N2CCC3(CC2)Oc2ccccc2-n2c(C)ccc23)ccc1OC(C)C [Compound 359] | ≥ 5.70 |

| Structure (SMILES) | pIC50 |
| --- | --- |
| CC(C)S(=O)(=O)c1ccc(C(=O)N2CCC3(CC2)Oc2cc(CO)ccc2-n2c(C#N)ccc23)cc1 [Compound 431] | ≥ 5.70 |
| COc1cc(C(=O)N2CCC3(CC2)Oc2cc(Cl)ccc2-n2cccc23)ccc1OCCS(C)(=O)=O [Compound 851] | ≥ 5.70 |
| COc1cc(OC(C)C)ccc1C(=O)N1CCC2(CC1)Oc1ccccc1-c1c2cnn1C [Compound 694] | ≥ 5.70 |
| Cc1cc2n(c1)-c1ccccc1OC21CCN(C(=O)c2ccc(OC(C)C)c(C)c2)CC1 [Compound 852] | ≥ 5.70 |
| COc1cc(C(=O)N2CCC3(CC2)Oc2cc(Cl)ccc2-n2cccc23)ccc1OCC(C)(C)OC [Compound 199] | ≥ 5.70 |
| COc1ccc(C(=O)N2CCC3(CC2)Oc2cc(F)ccc2-n2cccc23)cc1C(F)(F)F [Compound 249] | ≥ 5.70 |
| Cc1cc(C(=O)N2CCC3(CC2)Oc2cc(Cl)ccc2-n2cccc23)ccc1C(C)(C)O [Compound 792] | ≥ 5.70 |
| CCc1ccc(C(=O)N2CCC3(CC2)Oc2ccccc2-n2ccc(C)c23)cc1OC [Compound 314] | ≥ 5.70 |
| COc1cc(C(=O)N2CCC3(CC2)Oc2cc(Cl)ccc2-n2cccc23)ccc1C(C)CO (stereo not drawn) [Compound 609] | ≥ 5.70 |
| Cc1ccc2c(c1)OC1(CCN(C(=O)c3ccc(S(=O)(=O)C(C)C)cc3)CC1)c1ccc(C#N)n1-2 [Compound 440] | ≥ 5.70 |
| CC(C)(C)[S@+]([O-])c1ccc(C(=O)N2CCC3(CC2)Oc2ccccc2-n2c(C(F)(F)F)ccc23)cc1 [Compound 883] | 5.30 to 5.70 |
| COc1ccc(C(=O)N2CCC3(CC2)Oc2ccccc2-c2c3cnn2C)c(OC(C)C)c1 [Compound 205] | ≥ 5.70 |
| Cn1ncc2c1-c1ccccc1OC21CCN(C(=O)c2ccc3c(ccn3C)c2)CC1 [Compound 861] | ≥ 5.70 |
| Cc1cc(C(=O)N2CCC3(CC2)Oc2ccccc2-n2cccc23)ccc1C#N [Compound 562] | ≥ 5.70 |
| CC(C)Oc1ccc(C(=O)N2CCC3(CC2)Oc2ccccc2-c2c3cnn2C)c(F)c1 [Compound 599] | ≥ 5.70 |
| COc1cc(C(=O)N2CCC3(CC2)Oc2cc(Cl)ccc2-n2cccc23)ccc1C(C)(C)OC [Compound 497] | ≥ 5.70 |
| COc1cccc(C)c1C(=O)N1CCC2(CC1)Oc1ccccc1-c1c2cnn1C [Compound 259] | ≥ 5.70 |
| O=C(c1ccc(OCC2CCCO2)c(C(F)(F)F)c1)N1CCC2(CC1)Oc1ccccc1-n1cccc12 (stereo not drawn) [Compound 836] | ≥ 5.70 |
| CC(C)CS(=O)(=O)c1ccc(C(=O)N2CCC3(CC2)Oc2ccccc2-c2c3cnn2C)cc1 [Compound 423] | ≥ 5.70 |
| Cc1cc(C(=O)N2CCC3(CC2)Oc2cccnc2-c2c3cnn2C)ccc1OC(C)C [Compound 414] | ≥ 5.70 |
| Cn1ccc(C(=O)N2CCC3(CC2)Oc2cc(Cl)ccc2-n2cccc23)cc1=O [Compound 741] | 5.30 to 5.70 |
| COc1cc(C(=O)N2CCC3(CC2)Oc2ccccc2-c2c3cnn2C)ccc1OC[C@@H](C)OC [Compound 668] | ≥ 5.70 |
| Cn1ncc2c1-c1ccccc1OC21CCN(C(=O)c2ccccc2OC2CCOCC2)CC1 [Compound 292] | ≥ 5.70 |
| CCOc1ncccc1C(=O)N1CCC2(CC1)Oc1ccccc1-n1c(C(F)(F)F)ccc12 [Compound 130] | ≥ 5.70 |
| O=C(c1ccccc1OC(F)F)N1CCC2(CC1)Oc1cc(Cl)ccc1-n1cccc12 [Compound 21] | ≥ 5.70 |

| Structure (SMILES) | pIC50 |
| --- | --- |
| CC(C)N(C)S(=O)(=O)c1ccc(C(=O)N2CCC3(CC2)Oc2ccccc2-c2c3cnn2C)cc1 [Compound 233] | 5.30 to 5.70 |
| CC(C)S(=O)(=O)c1ccc(C(=O)N2CCC3(CC2)Oc2ccccc2-n2c(F)ccc23)cc1 [Compound 508] | ≥ 5.70 |
| COC(=O)c1c(OC)cccc1C(=O)N1CCC2(CC1)Oc1ccccc1-n1c(C#N)ccc12 [Compound 101] | ≥ 5.70 |
| CN(C)C(=O)c1ccccc1C(=O)N1CCC2(CC1)Oc1ccccc1-c1c2cnn1C [Compound 448] | 5.30 to 5.70 |
| CC(C)Oc1ccc(C(=O)N2CCC3(CC2)Oc2ccccc2-c2nn(C)cc23)c(F)c1 [Compound 246] | ≥ 5.70 |
| Cn1ncc2c1-c1ccccc1OC21CCN(C(=O)c2cccc3c2OC(F)(F)O3)CC1 [Compound 345] | ≥ 5.70 |
| CN(C)CCOc1ccc(C(=O)N2CCC3(CC2)Oc2cc(F)ccc2-n2cccc23)cc1C(F)(F)F [Compound 411] | < 5.30 |
| COc1c(C)cccc1C(=O)N1CCC2(CC1)Oc1cc(Cl)ccc1-n1cccc12 [Compound 605] | ≥ 5.70 |
| COc1ccc(OC)c(C(=O)N2CCC3(CC2)Oc2ccccc2-c2c3cnn2C)c1 [Compound 358] | 5.30 to 5.70 |
| CC(C)S(=O)(=O)c1ccc(C(=O)N2CCC3(CC2)Oc2ccccc2-n2c(C#N)ccc23)cc1 [Compound 297] | ≥ 5.70 |
| Cn1ncc2c1-c1ccccc1OC21CCN(C(=O)c2cccc3c2cnn3C)CC1 [Compound 867] | ≥ 5.70 |
| CC(C)Oc1ccc(C(=O)N2CCC3(CC2)Oc2ccccc2-c2c3cnn2C)cc1F [Compound 650] | ≥ 5.70 |
| CCn1ncc2c1-c1ccccc1OC21CCN(C(=O)c2ccc(S(=O)(=O)C(C)C)cc2)CC1 [Compound 253] | ≥ 5.70 |
| CC(C)(C)c1ccc(C(=O)N2CCC3(CC2)Oc2cc(F)ccc2-n2cccc23)cc1C#N [Compound 536] | ≥ 5.70 |
| Cc1cc(C(=O)N2CCC3(CC2)Oc2ccccc2-n2ccnc23)ccc1OC(C)C [Compound 153] | ≥ 5.70 |
| Cn1ncc2c1-c1ccccc1OC21CCN(C(=O)c2cccc3cnn(C)c23)CC1 [Compound 644] | < 5.30 |
| O=C(c1ccc(OC2COC2)c(C(F)(F)F)c1)N1CCC2(CC1)Oc1ccccc1-n1cccc12 [Compound 37] | ≥ 5.70 |
| Cn1ncc2c1-c1ccccc1OC21CCN(C(=O)c2ccc(C(C)(C)O)cc2)CC1 [Compound 506] | ≥ 5.70 |
| COc1cc(C(=O)N2CCC3(CC2)Oc2ccccc2-n2c(C#N)ccc23)ccc1OC(C)(C)C [Compound 686] | ≥ 5.70 |
| CCc1ccc(C(=O)N2CCC3(CC2)Oc2ccccc2-n2c(C(F)(F)F)ccc23)cc1OC [Compound 347] | ≥ 5.70 |
| COc1ccc(C(=O)N2CCC3(CC2)Oc2ccccc2-n2c3ccc2S(C)(=O)=O)cc1C(F)(F)F [Compound 819] | ≥ 5.70 |
| COc1cc(C(=O)N2CCC3(CC2)Oc2ccccc2-n2cccc23)ccc1O[C@H]1CCOC1 [Compound 837] | ≥ 5.70 |
| Cn1ncc2c1-c1ccccc1OC21CCN(C(=O)c2ccc(=O)n(C)c2)CC1 [Compound 87] | < 5.30 |
| O=C(c1ccc2[nH]ncc2c1)N1CCC2(CC1)Oc1ccccc1-n1c(C(F)(F)F)ccc12 [Compound 556] | 5.30 to 5.70 |
| COc1cc(C(=O)N2CCC3(CC2)Oc2ccccc2-c2c3cnn2C)ccc1O[C@@H]1CCOC1 [Compound 427] | ≥ 5.70 |
